The source of these data is ChEMBL document CHEMBL6087414, “Discovery of 4-(4-(3-(1-(2-(piperidin-1-yl)ethyl)-1H-benzo[d]imidazole-2-yl)isoxazol-5-yl)phenyl)morpholine as a novel c-Myc inhibitor against lung cancer in vitro and in vivo” (Eur J Med Chem, 2025).

The subject of one data set is NCI-H1299. Kind of data set: Cytotoxicity against human NCI-H1299 cells assessed as inhibition of cell viability incubated for 48 hrs by CCK8 assay. Particulars: NCI-H1299, 48 h. It is filed as functional, cell-based.
For data set [1], the system named is A549. Put plainly: Cytotoxicity against human A549 cells assessed as inhibition of cell viability incubated for 48 hrs by CCK8 assay. It is filed as functional, cell-based. Particulars: A549, 48 h.
In data set [2] the test system is A549. Put plainly: Induction of apoptosis in human A549 cells assessed as early apoptotic cells at 5 uM incubated for 48 hrs by Annexin V-FITC/PI staining based flow cytometry (reference value: 5.02 %). It counts as functional. Background: In flow cytometry, cells or beads pass a laser one at a time.
For data set [3], the system named is A549. Kind of data set: Induction of apoptosis in human A549 cells assessed as decrease in Bcl-2 level at 2.5 to 10 uM incubated for 48 hrs by Western blot analysis. It is filed as functional, cell-based. As to conditions: dose 2.5-10 µM. Background: A western blot detects proteins with antibodies after separation by electrophoresis.
Data set [4] concerns A549. Kind of data set: Induction of apoptosis in human A549 cells at 15 uM incubated for 48 hrs by Annexin V-FITC/PI staining based flow cytometry relative to control. It is filed as functional.
The test system of data set [5] is A549. Put plainly: Induction of apoptosis in human A549 cells assessed as necrotic cells at 10 uM incubated for 48 hrs by Annexin V-FITC/PI staining based flow cytometry (reference value: 1.41 %). It is filed as functional.
The test system of data set [6] is A549. Put plainly: Induction of apoptosis in human A549 cells at 5 uM incubated for 48 hrs by Annexin V-FITC/PI staining based flow cytometry relative to control. It counts as functional.
Data set [7] is described as follows: Cytotoxicity against human BEAS-2B cells assessed as cell viability upto 20 uM incubated for 48 hrs by CCK8 assay relative to control. It counts as toxicity, cell-based. Particulars: read-out: Activity. For orientation: Formazan colour is commonly taken as a measure of viable cells.
For data set [8], the system named is A549. Put plainly: Induction of apoptosis in human A549 cells assessed as activation of caspase-3 cleavage at 2.5 to 10 uM incubated for 48 hrs by Western blot analysis. It counts as functional, cell-based. As to conditions: dose 2.5-10 µM.
Data set [9] addresses Myc proto-oncogene protein (Homo sapiens) (UniProt P01106). Put plainly: Inhibition of c-Myc in human A549 cells at 10 uM incubated for 24 hrs in presence of MG132 by Western blot analysis. It is filed as cell-based.
For data set [10] the target is unchanged. Kind of data set: Inhibition of c-Myc in human A549 cells assessed as decrease in half life at 10 uM pretreated for 12 hrs followed by CHX treatment for 1 to 2 hrs by Western blot analysis. It is filed as cell-based. Particulars: time 13-14 hrs.
Data set [11] concerns A549. Kind of data set: Induction of apoptosis in human A549 cells assessed as necrotic cells at 5 uM incubated for 48 hrs by Annexin V-FITC/PI staining based flow cytometry (reference value: 1.41 %). It is filed as functional.
Data set [12] deals with A549. Put plainly: Induction of apoptosis in human A549 cells assessed as increase in BAX level at 2.5 to 10 uM incubated for 48 hrs by Western blot analysis. It is filed as functional, cell-based. Particulars: dose 2.5-10 µM.
Data set [13] has as its system A549. Put plainly: Induction of apoptosis in human A549 cells assessed as viable cells at 2.5 uM incubated for 48 hrs by Annexin V-FITC/PI staining based flow cytometry (reference value: 87.8 %). It is filed as functional. As to conditions: read-out: Activity.
The test system of data set [14] is A549. Put plainly: Induction of apoptosis in human A549 cells assessed as necrotic cells at 2.5 uM incubated for 48 hrs by Annexin V-FITC/PI staining based flow cytometry (reference value: 1.41 %). It is filed as functional.
Data set [15] concerns A549. Kind of data set: Induction of apoptosis in human A549 cells assessed as viable cells at 10 uM incubated for 48 hrs by Annexin V-FITC/PI staining based flow cytometry (reference value: 87.8 %). It is filed as functional. Particulars: read-out: Activity.
Data set [16] has as its system A549. Put plainly: Induction of apoptosis in human A549 cells incubated for 48 hrs by Annexin V-FITC/PI staining based flow cytometry. It is filed as functional, cell-based. As to conditions: dose 5-15 µM.
Data set [17] has as its system A549. Kind of data set: Effect on c-Myc mRNA expression in human A549 cells at 10 uM by Q-PCR analysis. It counts as functional, cell-based.
For data set [18], the system named is A549. Put plainly: Induction of apoptosis in human A549 cells assessed as late apoptotic cells at 2.5 uM incubated for 48 hrs by Annexin V-FITC/PI staining based flow cytometry (reference value: 5.79 %). It is filed as functional.
Data set [19] deals with A549. Put plainly: Induction of apoptosis in human A549 cells assessed as increase in BAD level at 2.5 to 10 uM incubated for 48 hrs by Western blot analysis. It counts as functional, cell-based. Particulars: dose 2.5-10 µM.
Data set [20] relates to A549. Kind of data set: Induction of apoptosis in human A549 cells assessed as late apoptotic cells at 10 uM incubated for 48 hrs by Annexin V-FITC/PI staining based flow cytometry (reference value: 5.79 %). It is filed as functional.
Data set [21] deals with A549. Put plainly: Induction of apoptosis in human A549 cells assessed as late apoptotic cells at 5 uM incubated for 48 hrs by Annexin V-FITC/PI staining based flow cytometry (reference value: 5.79 %). It counts as functional.
In data set [22] the test system is A549. Put plainly: Induction of apoptosis in human A549 cells assessed as early apoptotic cells at 10 uM incubated for 48 hrs by Annexin V-FITC/PI staining based flow cytometry (reference value: 5.02 %). It is filed as functional.
The test system of data set [23] is A549. Put plainly: Induction of apoptosis in human A549 cells assessed as early apoptotic cells at 2.5 uM incubated for 48 hrs by Annexin V-FITC/PI staining based flow cytometry (reference value: 5.02 %). It is filed as functional.
The target of data set [24] is Myc proto-oncogene protein (Homo sapiens) (UniProt P01106). Kind of data set: Inhibition of c-Myc in human NCI-H1299 cells by Western blot analysis. It counts as cell-based. As to conditions: dose <= 10.0 µM.
The test system of data set [25] is A549. Kind of data set: Induction of apoptosis in human A549 cells assessed as viable cells at 5 uM incubated for 48 hrs by Annexin V-FITC/PI staining based flow cytometry (reference value: 87.8 %). It counts as functional. As to conditions: read-out: Activity.
Data set [26] addresses Myc proto-oncogene protein (Homo sapiens) (UniProt P01106). Kind of data set: Inhibition of c-Myc in human A549 cells by Western blot analysis. It is filed as cell-based. As to conditions: dose <= 10.0 µM.
The subject of data set [27] is A549. Put plainly: Induction of apoptosis in human A549 cells assessed as activation of caspase-9 cleavage at 2.5 to 10 uM incubated for 48 hrs by Western blot analysis. It counts as functional, cell-based. Particulars: dose 2.5-10 µM.

pIC50: −log10 of the molar value. The source made the active and inactive calls. The calls are words filed in the database; no cut-off is given here. Where only a bound is given, the exact number is not on record here.

Sequence of Myc proto-oncogene protein (Homo sapiens) (P01106 whole entry): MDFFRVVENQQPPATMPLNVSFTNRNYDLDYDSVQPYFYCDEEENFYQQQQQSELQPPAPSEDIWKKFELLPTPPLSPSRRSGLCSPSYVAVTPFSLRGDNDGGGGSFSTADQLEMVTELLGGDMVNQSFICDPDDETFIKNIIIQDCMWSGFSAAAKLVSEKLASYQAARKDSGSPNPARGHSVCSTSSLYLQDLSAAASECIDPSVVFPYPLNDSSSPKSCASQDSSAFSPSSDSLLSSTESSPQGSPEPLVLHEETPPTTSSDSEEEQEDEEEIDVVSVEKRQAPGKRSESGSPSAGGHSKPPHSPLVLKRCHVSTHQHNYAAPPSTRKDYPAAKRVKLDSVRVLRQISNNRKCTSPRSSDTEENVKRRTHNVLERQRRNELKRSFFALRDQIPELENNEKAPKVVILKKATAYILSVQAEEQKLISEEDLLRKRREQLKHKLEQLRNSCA

With `Cc1ccc(C(=O)n2c(-c3cc(-c4ccc(F)cc4)on3)nc3ccccc32)cc1`, the pIC50 is 4.52 in the data set with NCI-H1299 and under 4.40 in the data set with A549 [1].
In the case of `c1ccc2c(c1)nc(-c1cc(-c3ccc(N4CCCCCC4)cc3)on1)n2CCN1CCOCC1`, the pIC50 in the data set with NCI-H1299 was 4.68; in the data set on A549 [1], 4.96.
As to `c1ccc2c(c1)nc(-c1cc(-c3ccc(N4CCCC4)cc3)on1)n2CCN1CCCCCC1`, the values for the negative logarithm of the IC50 (pIC50) in the data set with NCI-H1299 and in the data set with A549 [1] were 4.44 and 4.67, respectively.
Consider `CN(C)c1ccc(-c2cc(-c3nc4ccccc4n3CCN3CCOCC3)no2)cc1`, for which the pIC50 with NCI-H1299 was 4.75; in the data set on A549 [1], 4.90.
Consider `c1ccc2c(c1)nc(-c1cc(-c3ccc(N4CCOCC4)cc3)on1)n2CCN1CCCCCC1`, for which the negative-log IC50 (pIC50) was 4.56 in the data set with NCI-H1299 and 5.00 in the data set with A549 [1].
Turning to `O=C(c1ccccc1)n1c(-c2cc(-c3ccc(N4CCOCC4)cc3)on2)nc2ccccc21`, the pIC50 was 4.71 in the data set on NCI-H1299 and 4.68 in the data set on A549 [1].
With `c1ccc2c(c1)nc(-c1cc(-c3ccc(N4CCCCC4)cc3)on1)n2CCCN1CCCCC1`, the negative-log IC50 (pIC50) in the data set with NCI-H1299 is 4.54; in the data set on A549 [1], 4.87.
In the same order, the values of `c1ccc2c(c1)nc(-c1cc(-c3ccc(N4CCCCC4)cc3)on1)n2CCN1CCCC1` are 4.72 and 5.11.
In the case of `c1ccc2c(c1)nc(-c1cc(-c3ccc(N4CCOCC4)cc3)on1)n2CCCN1CCCCC1`, the results for the pIC50 with NCI-H1299 and in the data set with A549 [1] were 4.69 and 5.20, respectively.
In the same order, the values of `c1ccc2c(c1)nc(-c1cc(-c3ccc(N4CCCCC4)cc3)on1)n2CCCN1CCOCC1` are 4.62 and 4.86.
Take `CN(C)c1ccc(-c2cc(-c3nc4ccccc4n3CCN3CCCCCC3)no2)cc1`: the negative-log IC50 (pIC50) was 4.74 in the data set with NCI-H1299 and 4.94 in the data set on A549 [1].
With `c1ccc2c(c1)nc(-c1cc(-c3ccc(N4CCOCC4)cc3)on1)n2CCN1CCCC1`, the Activity with A549 [2] was determined as 11.7%; with A549 [4], 53%; with A549 [5], 3.66%; in the data set with A549 [6], 22.3%; in the data set on A549 [11] it was 2.44%; in the data set on A549 [14], 5.52%. Further, the Activity result was “Dose-dependent-effect” with A549 [16]; 17.7% in the data set on A549 [18]; 45.2% in the data set with A549 [20]; 19.5% in the data set with A549 [21]; 7.88% in the data set on A549 [22]; 4.67% in the data set on A549 [23]. Moreover, the pIC50 with NCI-H1299 is 4.94; with A549 [1], 5.20. In addition, the result with A549 [3], in the data set on A549 [8], with A549 [12], in the data set on A549 [19] and in the data set with A549 [27] was Active. Further, the viability at 48 h, 20 µM in [7] was over 90%. Besides, the inhibition entry in data set [9] is “inactive”. For the same compound, the inhibition result in data set [10] is “Active”. The viability at 2.5 µM in the data set with A549 [13] was determined as 72.1%. In addition, in the data set with A549 [15], the viability at 10 µM worked out at 43.2%. In addition, in the data set with A549 [17], the outcome was inactive. Besides, the inhibition result in data set [24] and in data set [26] was “Dose-dependent-effect” throughout. In the data set with A549 [25], the viability at 5 µM is 66.3%.
In the case of `CCc1ccc(C(=O)n2c(-c3cc(-c4ccc(N5CCOCC5)cc4)on3)nc3ccccc32)cc1`, the pIC50 is 4.56 in the data set on NCI-H1299 and 4.63 in the data set with A549 [1].
In the same order, the values of `c1ccc2c(c1)nc(-c1cc(-c3ccc(N4CCOCC4)cc3)on1)n2CCN1CCOCC1` are 4.68 and 5.07.
For the compound `c1ccc2c(c1)nc(-c1cc(-c3ccc(N4CCCC4)cc3)on1)n2CCN1CCCC1`, the pIC50 in the data set on NCI-H1299 was 4.42; in the data set on A549 [1] it was 4.68.
With `CN(C)c1ccc(-c2cc(-c3nc4ccccc4n3CCN3CCCCC3)no2)cc1`, the pIC50 in the data set with NCI-H1299 was 4.88; in the data set with A549 [1], 5.04.
On to `Fc1ccc(-c2cc(-c3nc4ccccc4n3Cc3ccccc3)no2)cc1`, for which the pIC50 in the data set with NCI-H1299 and with A549 [1] was under 4.40 throughout.
As for `c1ccc2c(c1)nc(-c1cc(-c3ccc(N4CCCC4)cc3)on1)n2CCN1CCOCC1`, the pIC50 is 4.44 in the data set on NCI-H1299 and 4.70 in the data set on A549 [1].

As usually defined, the pIC50 is the IC50 on a negative log10 scale, so that one unit is a factor of ten.
